Reference: US20120101147A1, “INHIBITION OF HDAC2 TO PROMOTE MEMORY” (The General Hospital Corporation d/b/a Massachusetts …, priority 2008, published 2012)
Entries after “also recorded” stand apart in the source; their conditions may differ.

How the values were obtained:
[1] = system: tetra-acetylated H4; experiment: Western blot of tetra-acetylated H4 in primary striatal cells; assay type: cell-based, mouse; conditions: relative to DMSO controls
Procedure: (§1) Four compounds were tested including CI-994 (BRD-3696) and SAHA. […] BRD-6929 and BRD-5298 treatment results in a 2-5 fold increase in both marks at 1 and 10 uM.

[2] = system: tetra-acetylated H2B; experiment: Western blot of tetra-acetylated H2B in primary striatal cells; assay type: cell-based, mouse; conditions: relative to DMSO controls
Procedure: as §1

[3] = system: primary neuronal cultures; experiment: Immunofluorescence: overall cell number in primary neuronal cultures; assay type: cell-based, mouse; conditions: 1 and 10 uM; 6 h; primary neuronal cell cultures
Procedure: (§2) 1) Compounds were pin transferred from 384-well plates (Abgene) using a 185 nl pin tool using a no touch bottom protocol.
(§3) 1) Media was aspirated using a plate washer (Tecan) protocol that leaves ˜5 ul residual volume and without touching the bottom of plates); or alternatively, wells were gently aspirated to remove media with 12-channel aspirator wand.
(§4) 2) A multichannel pipet or use liquid handling system (e.g. Combi, standard tubing; slow speed) was used to add 75 ul formaldehyde (4% in PBS) and wells incubated 10 min at room temperature.
(§5) 3) Formaldehyde was aspirated and cells rinsed 3 times with 100 ul PBS;
(§6) 4) PBS was aspirated and 100 ul blocking/permeablization buffer (0.1% Triton-X100, 2% BSA, in PBS) added and wells incubate 1 hour at room temperature.
(§7) 5) Blocking buffer was aspirated and 50 ul primary antibody diluted 1:500 in blocking buffer was added and wells incubated overnight at 4 degrees.
(§8) 1) Primary antibody was aspirated and wells rinsed 3 times with 100 ul blocking buffer
(§9) 2) 50 ul of secondary antibody diluted 1:500 and with Hoeschst (1:1000 from 10 mg/mL (16 mM) stock) added and wells incubated 1.5 hours at room temperature covered in foil to prevent photobleaching.
(§10) 3) Wells were rinsed 3 times with 100 ul PBS, and a 100 uls of PBS added and the plates, sealed
(§11) 4) Plates were then read on Acumen/IX Micro

[4] = system: H2B acetylation; experiment: Immunofluorescence: H2B acetylation in primary neuronal cell cultures; assay type: cell-based, mouse; conditions: 1 and 10 uM; 6 h; primary neuronal cell cultures
Procedure: as §2, §3, §4, §5, §6, §7, §8, §9, §10, §11

[5] = system: mice; experiment: Context-dependent fear conditioning memory test; assay type: in vivo, mouse
Procedure: Fear conditioning tests Context-dependent fear conditioning. Training consists of a 3 min exposure of mice to the conditioning box (context) followed by a foot shock (2 sec, 0.5/0.8/1.0 mA, constant current). The memory test was performed 24 hr later by re-exposing the mice for 3 min into the conditioning context. Freezing, defined as a lack of movement except for heart beat and respiration associated with a crouching posture, was recorded every 10 sec by two trained observers (one was unaware of the experimental conditions) during 3 min (a total of 18 sampling intervals). The number of observations indicating freezing obtained as a mean from both observers was expressed as a percentage of the total number of observations.
Chemical administration Suberoylanilide hydroxamic acid (SAHA) was synthesized as described previously in WO 93/07148 PTC/US92/08454. Sodium butyrate was purchased from Sigma (cat.B5887). SAHA and WT-161 were dissolved in DMSO as stock solutions and diluted in saline just before injection. Sodium butyrate was prepared in saline. Mice received intraperitoneal injection daily with either SAHA or saline for 10 days or 21 days.
C57/BL6 WT mice were injected with vehicle or BRD-6929 for 10 days. On day 11, mice were trained in contextual fear conditioning paradigm (Training consisted of a 3 min exposure of mice to the conditioning box (context, TSE) followed by a foot shock (2 sec, 0.8 mA, constant current). One hour after training, mice were injected with BRD-6929 or vehicle. On day 12, mice were returned to the training box and the freezing behavior were monitored and recorded.

[6] = system: c-fos; experiment: c-fos positive cells after fear conditioning training; assay type: in vivo, mouse; conditions: compared to saline treated group
Text: Studies described in the Examples below were also undertaken to determine which of the 11 histone deacetylases is responsible for the observed function and to identify selective HDAC inhibitors for enhancing memory. […] Remarkably, HDAC2 neuron specific knockout mice (loss of function) display enhanced learning. […] Thus it was unexpected that HDAC1/HDAC2 inhibitors would be useful for enhancing memory.

[7] = system: CA1 region of hippocampus; experiment: Golgi staining and synaptophysin immunostaining of hippocampal CA1; assay type: in vivo, mouse
Procedure: Memory test for mice with contextual fear conditioning training (foot shock 1.0 mA). HDAC2OE mice (SAHA group, n=12; saline group, n=12) and WT littermates (SAHA group, n=12; saline group, n=15) were treated with saline or SAHA (25 mg/kg, i.p.) for 10 days before memory test. b. CA1 region (pyramidal neuron layer; stratum radiatum (s.r.)) from WT and HDAC2OE mice received chronic SAHA treatment or saline treatment and were observed through immunostaining. Average optical signals for Ac-lysine were measured on pyramidal neuron layer; SVP signals were measured from s.r. c. Images of Golgi staining from CA1 region of hippocampus. For WT, naive, n=23; WT, SAHA, n=41; HDAC2OE, naïve, n=21; HDAC2OE, SAHA, n=32. Scale bar 10 μm. d. Memory test for mice with contextual fear conditioning training (foot shock 0.5 mA) after 10 day SAHA injection (25 mg/kg, i.p.). WT mice (SAHA, n=10; saline, n=10) and HDAC2 KO mice (SAHA, n=8; saline, n=8). e. CA1 region from HDAC2KO mice received chronic SAHA treatment or saline treatment and were observed through immunostaining. SVP-singles were quantified in the s.r. Saline, n=15; SAHA, n=22. Scale bar=50 μm. f. Images of Golgi staining of CA1 region of hippocampus from HDAC2KO mice. HDAC2KO, SAHA, n=24; HDAC2KO, naïve, n=27. *, p<0.05; **, p<0.005; ***,p<0.001, unpaired student t-test error bars indicate s.e.m.
Golgi impregnation Golgi-Cox-stained brains were cut to 200 μm thick cross-sections with vibratome and analyzed using a Zeiss 200 Axiovert microscope and Openlab software. The number of apical and basal spines on hippocampal CA1 pyramidal neurons was counted blind to the genotype. For each experimental group, a minimum of 10 cells per slice (animal number n=3) were analyzed. CA1 hippocampal neurons within the region −1.4 mm to −1.6 mm (relative to the bregma position) were included for the analysis.
Immunohistochemistry Immunohistochemical analysis was performed as described before (Guan, J. S., et al., Cell, 2005. 122(4): p. 619-31.). Antibodies were used in a 1:1000 concentration. […] Staining was quantified using LSMetal0 software (Zeiss).

[8] = system: hippocampus; experiment: Long-term potentiation (LTP) in hippocampal slices of treated mice; assay type: in vivo, mouse; conditions: 25 mg/kg i.p. 10 days, one HFS 1×100 Hz
Procedure: FIG. 6 SAHA treatment facilitates LTP in WT but not HDAC2KO hippocampus. a-b. One-month-old HDAC2KO mice and their WT littermates were injected with SAHA (25 mg/kg, i.p.) or saline for 10 days. An additional injection was introduced 30 minutes before sacrifice. Long-term potentiation (LTP) was induced by one HFS stimulation (1×100 Hz, 1 s) of Schaffer collaterals. a. […] (**, p<0.005, two-way ANOVA).
Electrophysiological analysis. 3-6 months old HDAC2OE, HDAC2KO or their littermates were killed by cervical dislocation, and hippocampi were rapidly dissected in iced oxygenated artificial CSF (ACSF). Transverse hippocampal slices, 400 μm thick were placed in a chamber and continuously perfused with oxygenated ACSF. A bipolar stimulating electrodes (0.002-inch-diameter nichrome wire; A-M Systems) placed in the stratum radiatum was used to elicit action potentials in CA3 axons. An ACSF-filled glass microelectrode with a resistance between 0.5 and 3 MΩ was placed in the stratum radiatum region of CA1 and was used to record the field excitatory post-synaptic potentials (fEPSP). Data were acquired using HEKA EPC10 and analyzed by patchmaster (HEKA). […] Baseline responses were recorded for 20 min. fEPSP were evoked at the CA1 synapses by stimulating Schaffer collaterals at a low frequency (2 per min) to establish a stable baseline. […]

[9] = target: T1, HDAC6 (Homo sapiens, UniProt Q9UBN7); conditions: cited from earlier work
T1 sequence (Q9UBN7 1-1215): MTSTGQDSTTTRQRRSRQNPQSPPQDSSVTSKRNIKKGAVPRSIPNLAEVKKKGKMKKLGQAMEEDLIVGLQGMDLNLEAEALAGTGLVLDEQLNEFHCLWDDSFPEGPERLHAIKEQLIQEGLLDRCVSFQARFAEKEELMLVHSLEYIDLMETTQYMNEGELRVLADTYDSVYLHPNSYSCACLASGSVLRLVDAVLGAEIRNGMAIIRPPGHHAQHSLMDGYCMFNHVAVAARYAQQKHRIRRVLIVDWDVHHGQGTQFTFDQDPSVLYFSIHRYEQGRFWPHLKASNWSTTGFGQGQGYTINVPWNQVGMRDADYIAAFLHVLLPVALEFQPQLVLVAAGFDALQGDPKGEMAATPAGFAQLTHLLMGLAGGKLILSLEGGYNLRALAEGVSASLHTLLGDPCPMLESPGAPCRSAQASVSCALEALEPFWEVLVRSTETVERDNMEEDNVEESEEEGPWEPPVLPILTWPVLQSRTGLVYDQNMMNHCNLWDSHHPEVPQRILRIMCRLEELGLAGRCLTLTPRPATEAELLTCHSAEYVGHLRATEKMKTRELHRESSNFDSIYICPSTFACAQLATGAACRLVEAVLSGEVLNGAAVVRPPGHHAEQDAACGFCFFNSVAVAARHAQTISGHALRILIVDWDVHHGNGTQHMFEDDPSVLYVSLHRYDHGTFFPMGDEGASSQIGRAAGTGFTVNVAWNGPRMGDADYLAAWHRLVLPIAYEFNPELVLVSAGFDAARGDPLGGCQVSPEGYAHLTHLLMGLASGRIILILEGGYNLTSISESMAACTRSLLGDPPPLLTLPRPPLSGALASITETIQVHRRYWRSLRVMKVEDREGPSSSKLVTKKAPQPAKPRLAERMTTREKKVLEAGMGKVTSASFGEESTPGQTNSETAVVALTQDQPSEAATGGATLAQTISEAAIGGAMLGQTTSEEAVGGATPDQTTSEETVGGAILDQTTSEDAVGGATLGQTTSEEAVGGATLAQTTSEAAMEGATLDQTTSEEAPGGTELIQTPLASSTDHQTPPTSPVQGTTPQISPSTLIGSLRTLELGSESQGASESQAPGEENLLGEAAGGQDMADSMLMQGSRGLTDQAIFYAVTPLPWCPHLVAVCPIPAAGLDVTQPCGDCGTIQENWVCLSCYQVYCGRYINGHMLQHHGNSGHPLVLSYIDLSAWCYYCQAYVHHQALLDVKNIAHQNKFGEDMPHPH

[10] = HDAC2KO mice, chronic treatment

CN1CCN(CCNC(=O)c2ccc(C(=O)Nc3cc(-c4cccs4)ccc3N)cc2)CC1 [BRD-5298, N1-(2-amino-5-(thiophen-2-yl)phenyl)-N4-(2-(4-methylpiperazin-1-yl)ethyl)terephthalamide]
tetra-acetylated H4 [1]: significantly increased
tetra-acetylated H2B [2]: trend toward increasing
overall cell number [3]: do not cause an increase or decrease
H2B acetylation [4]: significant increase

Nc1ccccc1NC(=O)c1ccc(CNC(=O)OCc2cccnc2)cc1 [MS-275]
associative learning in mice ([5]; mouse, in vivo): did not facilitate
number of c-fos positive cells after fear conditioning training [6]: lower number

O=C(CCCCCCC(=O)Nc1ccccc1)NO [SAHA, suberoylanilide hydroxamic acid]
freezing behavior ([5]; HDAC2KO mice, 25 mg/kg i.p. 10 days, foot shock 0.5 mA, n=8): 52.1±9.8%
freezing behavior ([5]; HDAC2OE mice, 25 mg/kg i.p. daily 10 days, foot shock 1.0 mA, n=12): 66.7±5.1%
freezing behavior ([5]; WT control mice, 25 mg/kg i.p. 10 days, foot shock 0.5 mA, n=10): 45.0±6.9%
freezing behavior ([5]; WT control mice, 25 mg/kg i.p. daily 10 days, foot shock 1.0 mA, n=12): 63.9±4.2%
dendritic spine density of CA1 neurons [7, 10]: not significantly affected
synaptophysin staining in the stratum radiatum [7, 10]: not significantly affected
decreased dendritic spine and synapses phenotype ([7]; HDAC2OE mice, chronic treatment 25 mg/kg i.p.): completely abrogated
LTP ([8]; HDAC2 KO hippocampus): did not have a detectable effect; also recorded: No significant difference
LTP ([8]; WT hippocampus): modestly increased; also recorded: significant increase

CCCC(=O)[O-].[Na+] [SB, sodium butyrate]
inhibition of HDAC6 activity in vitro [9]: does not inhibit
